Results taken from publication PMC6272448, “Synthesis, ^18F-Radiolabelling and Biological Characterization of Novel Fluoroalkylated Triazine Derivatives for in Vivo Imaging of Phosphodiesterase 2A in Brain via Positron Emission Tomography” (Molecules, 2015).
pIC50: −log10 of the molar value. Read-outs that look alike come from different tables or passages of the source.

Key:
hPDE2A = settings: cited from earlier work
human recombinant PDE2A = human recombinant PDE2A (Homo sapiens, UniProt O00408); assay: enzyme assay, inhibitory potency for human recombinant PDE2A; assay type: biochemical; settings: for Selectivity Ratio PDE10A/PDE2A: IC50 hPDE10A / IC50 hPDE2A; for pIC50: human recombinant PDE2A, enzyme assay (BioCrea), read-out: IC50 hPDE2A
human recombinant PDE2A, sequence (O00408 whole entry): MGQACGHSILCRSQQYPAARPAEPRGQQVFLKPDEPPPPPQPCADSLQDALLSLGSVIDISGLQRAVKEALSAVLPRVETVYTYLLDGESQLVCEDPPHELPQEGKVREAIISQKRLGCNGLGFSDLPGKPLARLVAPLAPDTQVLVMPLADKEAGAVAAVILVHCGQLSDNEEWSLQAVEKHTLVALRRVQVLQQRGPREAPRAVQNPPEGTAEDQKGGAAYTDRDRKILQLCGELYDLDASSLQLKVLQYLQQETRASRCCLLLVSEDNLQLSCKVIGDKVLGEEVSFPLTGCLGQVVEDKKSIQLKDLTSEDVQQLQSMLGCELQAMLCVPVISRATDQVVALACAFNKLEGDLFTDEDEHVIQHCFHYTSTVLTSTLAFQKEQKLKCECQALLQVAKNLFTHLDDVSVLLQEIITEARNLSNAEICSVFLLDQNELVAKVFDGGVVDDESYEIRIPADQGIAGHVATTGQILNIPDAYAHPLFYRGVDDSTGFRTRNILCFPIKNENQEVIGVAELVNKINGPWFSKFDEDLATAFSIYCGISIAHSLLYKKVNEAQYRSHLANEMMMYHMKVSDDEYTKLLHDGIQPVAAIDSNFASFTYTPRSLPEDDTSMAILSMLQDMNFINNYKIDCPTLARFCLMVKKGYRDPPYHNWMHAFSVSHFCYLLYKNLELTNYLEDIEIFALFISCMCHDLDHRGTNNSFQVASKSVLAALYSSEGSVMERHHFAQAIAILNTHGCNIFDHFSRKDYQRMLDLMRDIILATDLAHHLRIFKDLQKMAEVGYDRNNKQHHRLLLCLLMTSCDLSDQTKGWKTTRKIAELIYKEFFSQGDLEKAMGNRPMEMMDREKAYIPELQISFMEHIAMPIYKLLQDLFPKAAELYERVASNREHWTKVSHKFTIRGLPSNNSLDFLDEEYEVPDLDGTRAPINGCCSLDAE
Description: (§1) The IC50 values obtained by this assay represent relative measures of the respective target affinity of the compounds.

human recombinant PDE10A = human recombinant PDE10A (Homo sapiens, UniProt Q9Y233); assay: enzyme assay, inhibitory potency for human recombinant PDE10A; assay type: biochemical; settings: enzyme assay (BioCrea), read-out: IC50 hPDE10A
human recombinant PDE10A, sequence (Q9Y233 whole entry): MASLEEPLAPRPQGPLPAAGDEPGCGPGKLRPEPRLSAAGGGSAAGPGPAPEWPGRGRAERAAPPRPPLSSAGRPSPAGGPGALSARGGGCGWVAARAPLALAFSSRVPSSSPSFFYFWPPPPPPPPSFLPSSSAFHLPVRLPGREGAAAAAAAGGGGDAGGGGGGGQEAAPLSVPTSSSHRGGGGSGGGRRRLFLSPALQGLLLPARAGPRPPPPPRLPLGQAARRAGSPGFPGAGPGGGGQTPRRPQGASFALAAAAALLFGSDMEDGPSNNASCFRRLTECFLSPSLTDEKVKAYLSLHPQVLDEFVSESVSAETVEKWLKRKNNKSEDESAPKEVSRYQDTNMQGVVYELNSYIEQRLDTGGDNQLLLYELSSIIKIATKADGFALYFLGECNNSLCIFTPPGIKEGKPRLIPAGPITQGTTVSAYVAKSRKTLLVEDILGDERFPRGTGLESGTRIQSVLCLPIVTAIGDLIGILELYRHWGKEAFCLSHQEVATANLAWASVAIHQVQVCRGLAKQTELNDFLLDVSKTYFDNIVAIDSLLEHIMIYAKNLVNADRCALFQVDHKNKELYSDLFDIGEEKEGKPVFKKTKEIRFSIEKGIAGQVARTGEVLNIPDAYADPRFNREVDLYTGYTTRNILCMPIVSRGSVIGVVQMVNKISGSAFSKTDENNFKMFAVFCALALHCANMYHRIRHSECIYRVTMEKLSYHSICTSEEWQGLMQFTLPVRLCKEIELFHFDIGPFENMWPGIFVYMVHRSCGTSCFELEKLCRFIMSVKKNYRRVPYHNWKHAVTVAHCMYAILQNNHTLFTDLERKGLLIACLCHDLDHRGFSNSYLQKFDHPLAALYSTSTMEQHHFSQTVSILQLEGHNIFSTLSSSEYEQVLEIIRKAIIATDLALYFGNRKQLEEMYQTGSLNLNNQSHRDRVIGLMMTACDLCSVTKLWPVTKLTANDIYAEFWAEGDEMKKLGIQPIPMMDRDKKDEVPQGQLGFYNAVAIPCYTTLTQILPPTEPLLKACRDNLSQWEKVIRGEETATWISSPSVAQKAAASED
Description: as §1

[1] = set-up: method as in PMID 24189054; settings: rats, cited from earlier work
hPDE10A = system: hPDE10A; set-up: method as in PMID 24189054, PMID 23651455; settings: cited from earlier work
[2] = set-up: method as in PMID 24189054, PMID 23651455; settings: monkeys, striatum; cited from earlier work

| SMILES | Selectivity Ratio PDE10A/PDE2A (human recombinant PDE2A) | pIC50 (human recombinant PDE2A) | pIC50 (human recombinant PDE10A) | other results |
| --- | --- | --- | --- | --- |
| COc1ccc(Cc2nn3c(C(CCCc4ccccc4)C(C)O)nc(C)c3c(=O)[nH]2)cc1OC (centres unmarked) [BAY 60-7550] |  |  |  | pIC50 (hPDE2A; Figure 1): ~8.30 |
| CCCCCCC(C(C)O)n1cnc2c(N)ncnc21 (stereo not drawn) [EHNA, erythro-9-(2-hydroxy-3-nonyl)-adenine] |  |  |  | pIC50 (hPDE2A; Figure 1): ~6.00 |
| COc1ccc2nnc3c(C)nc(-c4cc(OCCF)ccc4F)n3c2n1 [TA2, 9-(2-Fluoro-5-(2-fluoroethoxy)phenyl)-2-methoxy-7-methylimidazo[5,1-c]pyrido[2,3-e] [1,2,4]triazine] | 7.4 | 7.98 | 7.11 |  |
| COc1ccc2nnc3c(C)nc(-c4cc(OCCCF)ccc4F)n3c2n1 [TA3] | 27.9 | 7.94 | 6.50 |  |
| COc1ccc2nnc3c(C)nc(-c4cc(OCCCCF)ccc4F)n3c2n1 [TA4] | 125.1 | 8.14 | 6.04 |  |
| Cc1nc2ccc(CN3CCOCC3)cc2n2c(-c3c([18F])cccc3Cl)nnc12 [[^18F]B-23] |  |  |  | radiometabolites detected in the brain ([1]; at 2 min p.i.): 4 % of total activity; radiometabolites detected in the brain ([1]; at 10 min p.i.): 10 % of total activity; regional accumulation in microPET imaging [1]: highest accumulation of [^18F]B-23 has been observed in the striatum |
| Cc1nc(-c2cnn(C)c2-c2ccc(C(F)(F)F)cc2)c2c(N3CC([18F])C3)ncnn12 [[^18F]PF-05270430] |  |  |  | pIC50 (hPDE2A; Pfizer PET ligand): 9.30; pIC50 (hPDE10A): 5.52; uptake in PET studies [2]: rapid and high uptake |
